Read-outs that look alike come from different tables or passages of the source.
Target: T1, ACE-2 (Homo sapiens, UniProt Q9BYF1)
T1 construct: a stop codon inserted after the serine immediately preceding the transmembrane domain; made in house; host or cells: CHO K1 cells (transient transfection, purified from conditioned medium)
Assay: ACE-2 Competitive Substrate Assay (ACS Assay)
Format: biochemical

[1] = Ki class, compounds tested in 5% DMSO, 12 compound concentrations, Ki=Kiapp/(1+[S]/Km), read-out: Human ACE-2 Activity
[2] = Ki class per key, compounds tested in 5% DMSO, 12 compound concentrations, 25° C., Ki=Kiapp/(1+[S]/Km), read-out: Human ACE-2 Activity
[3] = Table 3, very good ACE-2 inhibiting compounds, species not given, read-out: ACE-2 Activity, Ki
[4] = Ki class, compounds tested in 5% DMSO, 12 concentrations, read-out: Human ACE-2 Activity

T1 sequence (Q9BYF1 18-740 limits assumed): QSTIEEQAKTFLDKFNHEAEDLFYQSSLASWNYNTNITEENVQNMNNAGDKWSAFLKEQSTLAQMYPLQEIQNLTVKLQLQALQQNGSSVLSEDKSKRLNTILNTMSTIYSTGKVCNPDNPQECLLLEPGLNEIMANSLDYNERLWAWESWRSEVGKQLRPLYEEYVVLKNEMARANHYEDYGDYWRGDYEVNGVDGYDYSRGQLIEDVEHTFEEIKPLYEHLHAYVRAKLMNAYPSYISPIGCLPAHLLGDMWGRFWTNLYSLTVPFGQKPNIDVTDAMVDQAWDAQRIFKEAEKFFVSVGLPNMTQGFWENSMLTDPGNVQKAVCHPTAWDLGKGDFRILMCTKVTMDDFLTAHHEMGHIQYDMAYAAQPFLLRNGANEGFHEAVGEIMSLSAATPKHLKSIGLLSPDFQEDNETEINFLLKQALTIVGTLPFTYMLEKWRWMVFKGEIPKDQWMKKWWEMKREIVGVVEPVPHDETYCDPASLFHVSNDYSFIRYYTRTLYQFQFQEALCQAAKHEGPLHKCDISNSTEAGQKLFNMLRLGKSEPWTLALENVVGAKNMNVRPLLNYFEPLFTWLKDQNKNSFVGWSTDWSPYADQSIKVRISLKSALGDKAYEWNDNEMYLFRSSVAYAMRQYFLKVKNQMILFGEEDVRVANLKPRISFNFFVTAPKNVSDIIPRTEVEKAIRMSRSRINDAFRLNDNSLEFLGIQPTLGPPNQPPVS

| SMILES | Ki [1] [nM] | further results |
| --- | --- | --- |
| CC(C)C[C@H](N[C@@H](Cc1ccc(C(=O)Nc2cc(Cl)cc(Cl)c2)cc1)C(=O)O)C(=O)O [QE, 2-[1-Carboxy-2-[4-(3,5-dichloro-phenylcarbamoyl)-phenyl]ethylamino]-4-methyl-pentanoic acid] |  | Ki [2]: < 100 nM; Ki [3]: < 50 nM |
| CC(N[C@@H](Cc1ccccc1)C(=O)O)C(=O)O (some centres unmarked) [O, 2-(1-Carboxy-ethylamino)-3-phenyl-propionic acid] |  | Ki [4]: > 500 nM |
| Cc1cc2nc(NC(=O)C[C@H](N[C@@H](CC(C)C)C(=O)O)C(=O)O)sc2cc1C [MC, (S,S)-2-[1-Carboxy-2-(5,6-dimethyl-benzothiazol-2-ylcarbamoyl)-ethylamino]-4-methyl-pentanoic acid] | > 500 |  |
| CC(C)C[C@H](N[C@@H](Cc1cccc(OCc2cc(F)cc(F)c2)c1)C(=O)O)C(=O)O [NA, 2-[1-Carboxy-2-[3-(3,5-difluoro-benzyloxy)-phenyl]-ethylamino]-4-methyl-pentanoic acid] | 100 to 500 |  |
| CC(C)COc1cccc(C[C@H](N[C@@H](CC(C)C)C(=O)O)C(=O)O)c1 [ON, 2-[1-Carboxy-2-(3-isobutoxy-phenyl)-ethylamino]-4-methyl-pentanoic acid] | > 500 |  |
| CC(C)C[C@H](N[C@@H](Cc1ccc(Oc2cc(F)cc(F)c2)cc1)C(=O)O)C(=O)O [PS, 2-[1-Carboxy-2-[4-(3,5-difluoro-phenoxy)-phenyl]-ethylamino]-4-methyl-pentanoic acid] |  | Ki [2]: > 500 nM |
| CC(C)C[C@H](N[C@@H](Cc1ccc(-c2ccc(C(F)(F)F)cc2)cc1)C(=O)O)C(=O)O [PC, (S,S)-2-[1-Carboxy-2-(4′-trifluoromethyl-biphenyl-4-yl)-ethylamino]-4-methyl-pentanoic acid] |  | Ki [2]: < 100 nM; Ki [3]: 50 to 100 nM |
| CC(C)C[C@H](N[C@@H](CCNS(=O)(=O)c1ccc(-c2ccc(Cl)cc2)cc1)C(=O)O)C(=O)O [KN, (S,S)-2-[1-Carboxy-3-(4′-chloro-biphenyl-4-sulfonylamino)-propylamino]-4-methyl-pentanoic acid] | > 500 |  |
| CC(C)CC(N[C@@H](Cc1cncn1Cc1ccc([N+](=O)[O-])cc1)C(=O)O)C(=O)O (single isomer, unassigned) [IC, 2-[1-Carboxy-2-[3-(4-nitro-benzyl)-3H-imidazol-4-yl]-ethylamino]-4-methyl-pentanoic acid] | < 100 | Ki [3]: 50 to 100 nM |
| CC(C)C[C@H](N[C@@H](CC#Cc1cc(Cl)cc(Cl)c1)C(=O)O)C(=O)O [PR, 2-(1-Carboxy-3-methyl-butylamino)-5-(3,5-dichloro-phenyl)-pent-4-ynoic acid] |  | Ki [2]: > 500 nM |
| C=CCOc1cccc(C[C@H](N[C@@H](CC(C)C)C(=O)O)C(=O)O)c1 [NB, S,S-2-[2-(3-Allyloxy-phenyl)-1-carboxy-ethylamino]-4-methyl pentanoic acid] | 100 to 500 |  |
| CC(C)C[C@H](N[C@@H](Cc1ccccc1OCc1csc2ccc(Cl)cc12)C(=O)O)C(=O)O [QT, 2-{1-Carboxy-2-[2-(5-chloro-benzo[b]thiophen-3-ylmethoxy)-phenyl]-ethylamino}-4-methyl-pentanoic acid] |  | Ki [2]: > 500 nM |
| C[C@@H](N[C@@H](Cc1cncn1Cc1cc(Cl)cc(Cl)c1)C(=O)O)C(=O)O [PM, 2-(1-Carboxy-ethylamino)-3-[3-(3,5-dichloro-benzyl)-3H-imidazol-4-yl]-propionic acid] |  | Ki [2]: > 500 nM |
| CC(C)CC(N[C@@H](Cc1csc(-c2ccccc2)n1)C(=O)O)C(=O)O (stereo in doubt) [GQ, 2-[1-Carboxy-2-[2-phenyl-thiazol-4-yl)-ethylamino]-4-methyl-pentanoic acid] |  | Ki [4]: > 500 nM |
| CC(C)C[C@H](N[C@@H](Cn1ccn(Cc2cc(F)ccc2F)c1=O)C(=O)O)C(=O)O [OW, 2-[1-Carboxy-2-[3-(2,5-difluoro-benzyl)-2-oxo-2,3-dihydro-imidazol-1-yl]-ethylamino]-4-methyl-pentanoic acid] | < 100 | Ki [3]: 50 to 100 nM |
| CC(C)C[C@H](N[C@@H](Cc1ccc(C(=O)C(F)(F)F)n1CCC1CCCCC1)C(=O)O)C(=O)O [QZ, 2-[1-Carboxy-2-[1-(2-cyclohexyl-ethyl)-5-(2,2,2-trifluoro-acetyl)-1H-pyrrol-2-yl]-ethylamino]-4-methylpentanoic acid] |  | Ki [2]: < 100 nM; Ki [3]: < 50 nM |
| CC(C)C[C@H](N[C@@H](Cc1ccc(-c2cccnc2)cc1)C(=O)O)C(=O)O [PJ, (S,S)-2-[1-Carboxy-2-(4-pyridin-3-yl-phenyl)-ethylamino]-4-methyl-pentanoic acid] |  | Ki [2]: < 100 nM; Ki [3]: 50 to 100 nM |
| CC(C)CC(N[C@@H](Cc1cncn1CCc1ccccc1)C(=O)O)C(=O)O (single isomer, unassigned) [JL, 2-[1-Carboxy-2-[3-phenethyl-3H-imidazol-4-yl)-ethylamino]-4-methyl-pentanoic acid] | > 500 |  |
| CC(C)CC(N[C@@H](Cc1csc(NCc2ccccc2)n1)C(=O)O)C(=O)O (single isomer, unassigned) [HM, 2-[2-(2-Benzylamino-thiazol-4-yl)-1-carboxy-ethylamino]-4-methyl-pentanoic acid] | > 500 |  |

More lines, main results first:

| Ki [1] [nM] | SMILES | further results |
| --- | --- | --- |
| > 500 | CC(C)C[C@H](N[C@@H](Cc1ccn(-c2ccccc2)n1)C(=O)OC(C)(C)C)C(=O)O [OR] |  |
| > 500 | CC(C)C[C@H](N[C@@H](Cc1cncn1Cc1cc(Cl)cc(Cl)c1)C(=O)OC1CCCC1)C(=O)O [LQ, (S,S) 2-{1-Cyclopentyloxycarbonyl-2-[3-(3,5-dichloro-benzyl)-3H-imidazol-4-yl]-ethylamino}-4-methyl-pentanoic acid] |  |
| > 500 | CC(C)C[C@H](N[C@@H](CC(=O)Nc1nc(-c2ccccc2)cs1)C(=O)O)C(=O)O [OH, (S,S)-2-[1-Carboxy-2-(4-phenyl-thiazol-2-ylcarbamoyl)-ethylamino]-4-methyl-pentanoic acid] |  |
| > 500 | COc1cccc(C(=O)NCC[C@H](N[C@@H](CC(C)C)C(=O)O)C(=O)O)c1 [KO, 2-[1-Carboxy-3-(3-methoxy-benzoylamino)-propylamino]-4-methyl-pentanoic acid] |  |
| < 100 | CC(C)C[C@H](N[C@@H](Cn1ccn(Cc2cccc(Cl)c2)c1=O)C(=O)O)C(=O)O [OE, (S,S)-2-{1-Carboxy-2-[3-(3-chloro-benzyl)-2-oxo-2,3-dihydro-imidazol-1-yl]-ethylamino}-4-methyl-pentanoic acid] | Ki [3]: < 50 nM |
| 100 to 500 | CC(C)CC(N[C@@H](C[C@H]1COC(=O)N1Cc1cc(Cl)cc(Cl)c1)C(=O)O)C(=O)O (stereo in doubt) [NN, (R,S,S)-2-{1-Carboxy-2-[3-(3,5-dichloro-benzyl)-2-oxo-oxazolidin-4-yl]-ethylamino}-4-methyl-pentanoic acid] |  |
| 100 to 500 | CC(C)C[C@H](N[C@@H](Cc1cccc(OCc2ccc(Cl)cc2)c1)C(=O)O)C(=O)O [OB, 2-[1-Carboxy-2-[3-(4-chloro-benzyloxy)-phenyl)-ethylamino]-4-methyl-pentanoic acid] |  |
| 100 to 500 | CC(C)C[C@H](N[C@@H](Cc1ccc(OCc2ccccc2)cc1)C(=O)O)C(=O)O [KQ, S,S-2-[2-(4-Benzyloxy-phenyl)-1-carboxy-ethylamino-]4-methyl-pentanoic acid] |  |
| 100 to 500 | CC(C)C[C@H](N[C@@H](Cn1ccn(-c2cc(F)cc(F)c2)c1=O)C(=O)O)C(=O)O [MS, 2-{1-Carboxy-2-[3-(3,5-difluoro-phenyl)-2-oxo-2,3-dihydro-imidazol-1-yl]-ethylamino}-4-methyl-pentanoic acid] |  |

— patent publication US7045532B2 (Millennium Pharmaceuticals, Inc., priority 1999, dated 2006)
